Molecules are shown by their SMILES.

The assay relates to viruses containing mutations in the integrase gene (T66I/S153Y, N155S, and F121Y). In words: Sensitivity of viruses containing integrase mutations associated with resistance to other integrase inhibitors. The assay is classed as cell-based, HIV. The text has this:
In preclinical laboratory experiments, it has been possible to select viruses resistant to integrase inhibitors in structural classes other than those embraced by the present invention, such as diketo acids, naphthyridine carboxamides, and dihydropyrimidine carboxamides. Mutations in the integrase gene that confer resistance (defined herein as greater than or equal to a 10-fold loss of sensitivity) to such compounds include T66I/S153Y, N155S, and F121Y. Certain compounds of the present invention have less than a 10-fold loss in sensitivity against viruses containing these and other mutations associated with resistance to other integrase inhibitors, and thus can be effective inhibitors of such viruses. Compounds of the present invention which are effective against such viruses include, for example, the compounds of Examples 37, 50, 56, 62, 69, 86, 87, 88, 151, 153, 159-A, 159-B, 166, 189, 193, and 205.
On to `CCN1CC(CO)n2c(c(O)c3c(=O)n(Cc4ccc(F)cc4)nc(C)c32)C1=O` (racemic) [Example 56, 8-Ethyl-2-(4-fluorobenzyl)-10-hydroxy-4-methyl-6-(hydroxymethyl)-7,8-dihydropyrazino[1′,2′:1,5]pyrrolo[2,3-d]pyridazine-1,9(2H,6H)-dione], for which the “effective against viruses with integrase resistance mutations” value (“effective against viruses” below) is on record as “effective”.
In the case of `CCN1CC(C)n2c(c(O)c3c(=O)n(Cc4ccc(F)c(Cl)c4)nc(N(CC)S(C)(=O)=O)c32)C1=O` (racemic) [Example 159-B, N-[2-(3-Chloro-4-fluorobenzyl)-10-hydroxy-8-ethyl-6-methyl-1,9-dioxo-1,2,6,7,8,9-hexahydropyrazino[1′,2′:1,5]pyrrolo[2,3-d]pyridazin-4-yl]-N-ethylmethanesulfonamide] it was “effective”.
In the case of `Cc1nn(Cc2ccc(F)cc2)c(=O)c2c(O)c3n(c12)C(C)CN(C)C3=O` (stereo not shown) [Example 37, 2-(4-Fluorobenzyl)-10-hydroxy-4,6,8-trimethyl-7,8-dihydropyrazino[1′,2′:1,5]-pyrrolo[2,3-d]pyridazine-1,9(2H,6H)-dione] it was “effective”; in that of `Cc1nn(Cc2ccc(F)cc2)c(=O)c2c(O)c3n(c12)[C@@H](C)CN(C(C)C)C3=O` [Example 50, 6(S)-2-(4-Fluorobenzyl)-10-hydroxy-8-isopropyl-4,6-dimethyl-7,8-dihydropyrazino[1′,2′:1,5]pyrrolo[2,3-d]pyridazine-1,9(2H,6H)-dione], “effective”; in that of `CCN1C[C@H](C)n2c(c(O)c3c(=O)n(Cc4ccc(F)c(Cl)c4)nc(C(=O)NC)c32)C1=O` [Example 62, 6(S)-2-(3-Chloro-4-fluorobenzyl)-8-ethyl-10-hydroxy-N,6-dimethyl-1,9-dioxo-1,2,6,7,8,9-hexahydropyrazino[1′,2′:1,5]pyrrolo[2,3-d]pyridazine-4-carboxamide], “effective”.
As for `CCNC(=O)c1nn(Cc2ccc(F)c(Cl)c2)c(=O)c2c(O)c3n(c12)CCN(C)C3=O` [Example 69, 2-(3-Chloro-4-fluorobenzyl)-N-ethyl-10-hydroxy-8-methyl-1,9-dioxo-1,2,6,7,8,9-hexahydropyrazino[1′,2′:1,5]pyrrolo[2,3-d]pyridazine-4-carboxamide], the “effective against viruses” value was “effective”.
In the case of `CCNC(=O)c1nn(Cc2ccc(F)c(Cl)c2)c(=O)c2c(O)c3n(c12)[C@@H](C)CN(C(C)C)C3=O` [Example 86, 6(S)-2-(3-Chloro-4-fluorobenzyl)-10-hydroxy-8-isopropyl-N-ethyl-6-methyl-1,9-dioxo-1,2,6,7,8,9-hexahydropyrazino[1′,2′:1,5]pyrrolo[2,3-d]pyridazine-4-carboxamide] it was “effective”; in that of `CCNC(=O)c1nn(Cc2ccc(F)cc2)c(=O)c2c(O)c3n(c12)[C@@H](C)CN(C(C)C)C3=O` [Example 87, 6(S)-2-(4-Fluorobenzyl)-10-hydroxy-8-isopropyl-N-ethyl-6-methyl-1,9-dioxo-1,2,6,7,8,9-hexahydropyrazino[1′,2′:1,5]pyrrolo[2,3-d]pyridazine-4-carboxamide], “effective”.
Take `CC(C)N1C[C@H](C)n2c(c(O)c3c(=O)n(Cc4ccc(F)c(Cl)c4)nc(C(=O)N(C)C)c32)C1=O` [Example 88, 6(S)-2-(3-Chloro-4-fluorobenzyl)-10-hydroxy-8-isopropyl-N,N,6-trimethyl-1,9-dioxo-1,2,6,7,8,9-hexahydropyrazino[1′,2′:1,5]pyrrolo[2,3-d]pyridazine-4-carboxamide]: the “effective against viruses” value was “effective”.
In the case of `CCN1C[C@H](C)n2c(c(O)c3c(=O)n(Cc4ccc(F)c(Cl)c4)nc(N(C)S(C)(=O)=O)c32)C1=O` [Example 151, N-[(6S)-2-(3-Chloro-4-fluorobenzyl)-10-hydroxy-8-ethyl-6-methyl-1,9-dioxo-1,2,6,7,8,9-hexahydropyrazino[1′,2′:1,5]pyrrolo[2,3-d]pyridazin-4-yl]-N-methylmethanesulfonamide] it was “effective”; in that of `CC(C)N1C[C@H](C)n2c(c(O)c3c(=O)n(Cc4ccc(F)c(Cl)c4)nc(N(C)S(C)(=O)=O)c32)C1=O` [Example 153, N-[(6S)-2-(3-Chloro-4-fluorobenzyl)-10-hydroxy-8-isopropyl-6-methyl-1,9-dioxo-1,2,6,7,8,9-hexahydropyrazino[1′,2′:1,5]pyrrolo[2,3-d]pyridazin-4-yl]-N-methylmethanesulfonamide], “effective”.
In the case of `CC(C)N1C[C@H](C)n2c(c(O)c3c(=O)n(Cc4ccc(F)cc4)nc(N(C)S(C)(=O)=O)c32)C1=O` [Example 159-A, N-[(6S)-2-(4-Fluorobenzyl)-10-hydroxy-8-isopropyl-6-methyl-1,9-dioxo-1,2,6,7,8,9-hexahydropyrazino[1′,2′:1,5]pyrrolo[2,3-d]pyridazin-4-yl]-N-methylmethanesulfonamide] it was “effective”; in that of `CCN1C[C@H](C)n2c(c(O)c3c(=O)n(Cc4ccc(F)c(Cl)c4)nc(S(=O)(=O)CC)c32)C1=O` [Example 166, 6(S)-2-(3-Chloro-4-fluorobenzyl)-8-ethyl-10-hydroxy-4-(ethylsulfonyl)-6-methyl-7,8-dihydropyrazino[1′,2′:1,5]pyrrolo[2,3-d]pyridazine-1,9(2H,6H)-dione], “effective”.
Consider `CCN1C[C@H](C)n2c(c(O)c3c(=O)n(Cc4ccc(F)c(Cl)c4)ncc32)C1=O` [Example 189, 6(S)-2-(3-Chloro-4-fluorobenzyl)-10-hydroxy-8-ethyl-6-methyl-7,8-dihydropyrazino[1′,2′:1,5]pyrrolo[2,3-d]pyridazine-1,9(2H,6H)-dione], for which the “effective against viruses” value is on record as “effective”.
With `CC(C)N1C[C@H](C)n2c(c(O)c3c(=O)n(Cc4ccc(F)cc4)ncc32)C1=O` [Example 193, 6(S)-2-(4-Fluorobenzyl)-10-hydroxy-8-isopropyl-6-methyl-7,8-dihydropyrazino[1′,2′:1,5]pyrrolo[2,3-d]pyridazine-1,9(2H,6H)-dione], the “effective against viruses” value is reported as “effective”.
In the case of `CCN1CC(CO)n2c(c(O)c3c(=O)n(Cc4ccc(F)cc4)ncc32)C1=O` (stereo not shown) [Example 205, 2-(4-Fluorobenzyl)-10-hydroxy-8-ethyl-6-hydroxymethyl-7,8-dihydropyrazino[1′,2′:1,5]pyrrolo[2,3-d]pyridazine-1,9(2H,6H)-dione] it was “effective”.

The record behind these values is patent publication US7538112B2, “HIV integrase inhibitors” (Merck & Co., Inc., priority 2004, dated 2009).
